In patent publication US20090208493A1, “Compounds and methods for the selective inhibition of ABCB1, ABCC1 and ABCG2 transporters and the treatment of cancers, especially drug resistant cancers and high throughput flow cytometry assay to detect selective inhibitors” (STC. UNM, priority 2007, published 2009):
Structures can show the parent of a compound that is named as a salt. Where two headings read alike, the source gives them in different places. Each block holds one molecule with its values, some of them ahead of it.

Tests used:
[1] = tested on: parental Jurkat cells; experiment: Chemosensitivity of parental (therapy sensitive) Jurkat cells; type: cell-based; details: Homo sapiens
[2] = tested on: Jurkat DNR resistant cells; experiment: Chemosensitivity of DNR-resistant Jurkat cells; type: cell-based, human; details: for IC50: Homo sapiens, Jurkat cells with acquired resistance to DNR
[3] = tested on: DNR-resistant Jurkat cells; experiment: Chemreversal50: sensitisation of DNR-resistant Jurkat cells to 100 nM DNR; type: cell-based, human; details: read-out: Chemorev50 (SD), 50% of reversal of chemotherapeutic effect determined in in vitro screen
Experimental: To enable this analysis, a 3-log range of each “hit” compound was added in 2 mL aliquots to a 6 well plate and, over a range of 7 days, total cell number and viability was measured using a hemacytometer and trypan blue staining. Fresh media containing 100 nM DNR was added over the course of the experiment to maintain the cell concentration ≧100,000 cells/mL. […] The differences (if any) between the Chemreversal50 and TD50 gave an approximation of an in vitro “therapeutic index” for each compound.

[4] = tested on: DNR-resistant Jurkat cells; type: cell-based; details: media alone, 7 days
[5] = target: T1, ABCB1 (Homo sapiens, UniProt P08183); experiment: JC-1 efflux HyperCyt flow cytometry assay (ABCB1 reversal); details: for hit in primary screen of Prestwick Chemical Library for ABCB1-mediated JC-1 efflux: final concentration of 5 μM
[6] = target: T1, ABCB1; details: 5 μM
[7] = target: T1, ABCB1; experiment: JC1 duplex high-throughput flow cytometry assay, ABCB1 (Jurkat-DNR cells); type: cell-based; design: endogenous in cells; host or cells: Jurkat cells selected for daunorubicin resistance (Jurkat-DNR); details: 384 well plate
Experimental: (§1) Jurkat-DNR cells (ABCB1) were labeled with 0.5 ng/ml FarRed DDAO CellTrace SE (Invitrogen) for 15 min at room temperature, washed twice by centrifugation, then combined with unlabeled IgMXP3 cells (ABCG2) in the assay buffer. The label binds covalently to amine groups in cells and is detected at red fluorescence emission wavelengths of 665±10 nm upon excitation at 635 nm. Final in-well concentration of cells was 3×10^6 cell/ml at a 1:1 ratio of the two cell types.

[8] = target: T2, ABCG2 (Homo sapiens, UniProt Q9UNQ0); experiment: JC1 duplex high-throughput flow cytometry assay, ABCG2 (IgMXP3 cells); type: cell-based; details: 384 well plate
T2 construct: ABCG2-expressing IgMXP3 cells; endogenous in cells; host or cells: IgMXP3 cells (resistant subline of Igrov1)
T2 sequence (Q9UNQ0 1-655): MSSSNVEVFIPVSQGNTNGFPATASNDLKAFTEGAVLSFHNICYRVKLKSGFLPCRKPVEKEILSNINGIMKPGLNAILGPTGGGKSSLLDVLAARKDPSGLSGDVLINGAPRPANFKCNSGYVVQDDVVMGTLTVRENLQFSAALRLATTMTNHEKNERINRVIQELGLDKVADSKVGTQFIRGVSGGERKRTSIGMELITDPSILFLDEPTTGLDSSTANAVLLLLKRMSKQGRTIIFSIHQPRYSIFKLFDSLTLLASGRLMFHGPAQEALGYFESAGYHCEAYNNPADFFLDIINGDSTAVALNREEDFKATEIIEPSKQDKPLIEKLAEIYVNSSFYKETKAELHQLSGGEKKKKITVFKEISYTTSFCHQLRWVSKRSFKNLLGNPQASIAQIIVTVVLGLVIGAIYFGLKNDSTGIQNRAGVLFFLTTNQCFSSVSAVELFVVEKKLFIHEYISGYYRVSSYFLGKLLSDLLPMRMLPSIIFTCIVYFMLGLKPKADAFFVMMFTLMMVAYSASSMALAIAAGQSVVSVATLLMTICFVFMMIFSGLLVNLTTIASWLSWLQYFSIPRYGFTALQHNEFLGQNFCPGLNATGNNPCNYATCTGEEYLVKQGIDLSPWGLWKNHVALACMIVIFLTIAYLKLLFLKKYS
Experimental: as §1

[9] = Homo sapiens, 168 h, DNR-resistant Jurkat cells, fixed 100 nM DNR, 7 days, trypan blue viability

T1 sequence (P08183 whole entry): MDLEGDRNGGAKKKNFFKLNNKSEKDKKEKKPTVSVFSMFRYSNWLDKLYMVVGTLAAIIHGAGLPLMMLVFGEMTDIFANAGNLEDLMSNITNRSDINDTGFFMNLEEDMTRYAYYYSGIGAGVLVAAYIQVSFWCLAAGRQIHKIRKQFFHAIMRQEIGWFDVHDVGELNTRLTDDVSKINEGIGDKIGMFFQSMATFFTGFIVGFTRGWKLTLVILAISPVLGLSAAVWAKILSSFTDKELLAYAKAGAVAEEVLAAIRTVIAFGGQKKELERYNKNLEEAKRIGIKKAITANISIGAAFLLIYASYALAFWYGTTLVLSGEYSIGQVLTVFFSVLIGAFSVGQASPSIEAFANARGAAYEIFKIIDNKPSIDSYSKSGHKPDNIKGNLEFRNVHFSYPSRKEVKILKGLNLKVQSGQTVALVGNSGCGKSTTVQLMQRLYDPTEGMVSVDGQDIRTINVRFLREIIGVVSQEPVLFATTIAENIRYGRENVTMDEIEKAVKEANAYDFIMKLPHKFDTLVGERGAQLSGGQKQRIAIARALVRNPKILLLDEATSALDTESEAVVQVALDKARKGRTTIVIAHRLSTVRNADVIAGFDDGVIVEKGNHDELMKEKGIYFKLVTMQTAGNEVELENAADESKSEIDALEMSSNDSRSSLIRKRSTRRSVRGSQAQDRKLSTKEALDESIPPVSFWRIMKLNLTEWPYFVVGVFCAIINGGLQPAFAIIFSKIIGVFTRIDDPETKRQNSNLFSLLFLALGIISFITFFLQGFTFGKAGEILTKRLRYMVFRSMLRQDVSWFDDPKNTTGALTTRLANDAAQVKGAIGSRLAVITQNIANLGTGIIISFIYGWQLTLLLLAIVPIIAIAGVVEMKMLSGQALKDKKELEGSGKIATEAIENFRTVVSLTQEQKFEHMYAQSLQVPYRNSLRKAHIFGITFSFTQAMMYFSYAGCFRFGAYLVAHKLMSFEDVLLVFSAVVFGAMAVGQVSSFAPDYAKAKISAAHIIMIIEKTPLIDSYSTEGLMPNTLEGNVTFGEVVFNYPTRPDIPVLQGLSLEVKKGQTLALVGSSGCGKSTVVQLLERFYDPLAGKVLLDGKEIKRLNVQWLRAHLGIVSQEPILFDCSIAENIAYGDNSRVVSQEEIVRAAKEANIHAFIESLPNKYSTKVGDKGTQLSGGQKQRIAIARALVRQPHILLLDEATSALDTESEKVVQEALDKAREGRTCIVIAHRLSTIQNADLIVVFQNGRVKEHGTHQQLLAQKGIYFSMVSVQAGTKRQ

- IC50 [2]: 1 µM
Molecule: C[C@]12C=CC(=O)C=C1CC[C@@H]1[C@@H]2[C@@H](O)C[C@@]2(C)[C@H]1CC[C@]2(O)C(=O)CO [PRED, prednisolone]
- IC50 [1]: 0.316 µM
- increased resistance of DNR-resistant vs parental Jurkat cells [2]: 3 fold

Molecule: C[C@@H]1C[C@H]2[C@@H]3CCC4=CC(=O)C=C[C@]4(C)[C@@]3(Cl)[C@@H](O)C[C@]2(C)[C@@]1(OC(=O)c1ccco1)C(=O)CCl [Mometasone Furoate, mometasone furoate]
- EC50 ([3]; DNR-resistant Jurkat cells, fixed 100 nM DNR, 7 days, trypan blue viability): 1.4 ± 0.28 µM
- TD50 (SD), 50% toxic dose determined in in vitro screen [4]: 30.4 µM
- TD50 (SD), 50% toxic dose determined in in vitro screen ([4]; listed as mometasone): 24.8 ± 8.0 µM
- IC50 ([5]; read-out: IC50 (SD), 50% inhibition of drug efflux determined in high-throughput screen, JC-1 efflux, DNR-resistant Jurkat cells): 0.74 ± 0.13 µM

Molecule: CC(=O)N1CCN(c2ccc(OCC3COC(Cn4ccnc4)(c4ccc(Cl)cc4Cl)O3)cc2)CC1 (stereo not shown) [Ketoconazole, ketoconazole]
- EC50 [3, 9]: 3.7 µM

- IC50 [2]: 316 µM
Molecule: CC[C@]1(O)C[C@H]2CN(CCc3c([nH]c4ccccc34)[C@@](C(=O)OC)(c3cc4c(cc3OC)N(C=O)[C@H]3[C@@](O)(C(=O)OC)[C@H](OC(C)=O)[C@]5(CC)C=CCN6CC[C@]43[C@@H]65)C2)C1 [VCR, Vincristine]
- IC50 [1]: 6.31 µM
- increased resistance of DNR-resistant vs parental Jurkat cells [2]: approximately 70 fold

Molecule: COc1c(O[C@@H]2O[C@H](CO)[C@@H](O)[C@H](O)[C@H]2O)cc2c(c1OC)-c1ccc(SC)c(=O)cc1[C@@H](NC(C)=O)CC2 [thiocolchicoside]
- hit in primary screen of Prestwick Chemical Library for ABCB1-mediated JC-1 efflux [5]: inhibiting ABCB1-mediated drug efflux

Molecule: CC[C@H](c1ccc(O)cc1)[C@@H](CC)c1ccc(O)cc1 [Hexestrol, hexestrol]
- EC50 ([3]; Homo sapiens, Jurkat, 168 h): 12.8 µM
- IC50 [5]: 8.3 ± 3.2 µM

Molecule: C=C(C)[C@H]1Cc2c(ccc3c2O[C@@H]2COc4cc(OC)c(OC)cc4[C@@H]2C3=O)O1 [rotenone]
- hit in primary screen of Prestwick Chemical Library for ABCB1-mediated JC-1 efflux [5]: inhibiting ABCB1-mediated drug efflux

Molecule: Cc1cc(C2CCCCC2)n(O)c(=O)c1.NCCO [ciclopirox ethanolamine]
- hit in primary screen of Prestwick Chemical Library for ABCB1-mediated JC-1 efflux [5]: inhibiting ABCB1-mediated drug efflux

Molecule: Cc1c2ccncc2c(C)c2c1[nH]c1ccccc12 [Ellipticine, ellipticine]
- EC50 ([3]; Homo sapiens, Jurkat, 168 h): 1.8 µM
- TD50 (SD), 50% toxic dose determined in in vitro screen [4]: 3.8 µM
- TD50 (SD), 50% toxic dose determined in in vitro screen ([4]; listed as ellipticine): 2.7 ± 1.56 µM
- IC50 [5]: 0.99 ± 0.014 µM

Molecule: CC[C@H](C)[C@H]1O[C@]2(C=C[C@@H]1C)C[C@@H]1C[C@@H](C/C=C(\C)[C@@H](O[C@H]3C[C@H](OC)[C@@H](O[C@H]4C[C@H](OC)[C@@H](O)[C@H](C)O4)[C@H](C)O3)[C@@H](C)/C=C/C=C3\CO[C@@H]4[C@H](O)C(C)=C[C@@H](C(=O)O1)[C@]34O)O2 [avermectin]
- hit in primary screen of Prestwick Chemical Library for ABCB1-mediated JC-1 efflux [5]: inhibiting ABCB1-mediated drug efflux

- IC50 [5]: 1.53 ± 0.5 µM
Molecule: COC(=O)[C@H]1[C@H]2C[C@@H]3c4[nH]c5cc(OC)ccc5c4CCN3C[C@H]2C[C@@H](OC(=O)/C=C/c2cc(OC)c(OC)c(OC)c2)[C@@H]1OC [Rescinnamine, rescinnamine]
- EC50 [3, 9]: 1 µM

Molecule: COC(=O)C1=C(C)NC(C)=C(C(=O)OCCN(C)Cc2ccccc2)C1c1cccc([N+](=O)[O-])c1 (stereo not shown) [Nicardipine HCL, nicardipine]
- EC50 [3, 9]: 2.6 µM

Molecule: antimycin
- hit in primary screen of Prestwick Chemical Library for ABCB1-mediated JC-1 efflux [5]: inhibiting ABCB1-mediated drug efflux

- hit in primary screen of Prestwick Chemical Library for ABCB1-mediated JC-1 efflux [6]: inhibiting ABCB1-mediated drug efflux
Molecule: CCOC(=O)Oc1c(OC)cc(C(=O)O[C@@H]2C[C@@H]3CN4CCc5c([nH]c6cc(OC)ccc56)[C@H]4C[C@@H]3[C@H](C(=O)OC)[C@H]2OC)cc1OC [syrosingopine]

- hit in primary screen of Prestwick Chemical Library for ABCB1-mediated JC-1 efflux [6]: inhibiting ABCB1-mediated drug efflux
Molecule: CC(=O)O[C@H]1C[C@@]2(C)[C@@H](C[C@@H](O)[C@H]3[C@@]4(C)CC[C@@H](O)[C@@H](C)[C@@H]4CC[C@@]32C)/C1=C(\CCC=C(C)C)C(=O)O [fusidic acid]

- IC50 [5]: 5.4 ± 0.55 µM
Molecule: Cc1cccc(C)c1NC(=O)CN1CCN(CCCC(c2ccc(F)cc2)c2ccc(F)cc2)CC1 [Lidoflazine, lidoflazine]
- EC50 [3, 9]: 3.1 µM

- IC50 [5]: 4.6 ± 0.28 µM
Molecule: Fc1ccc(C(OCCN2CCN(CCCc3ccccc3)CC2)c2ccc(F)cc2)cc1 [GBR 12909 HCL, GBR 12909]
- EC50 [3, 9]: 2.1 µM

Molecule: CC[C@@H](C(=O)[C@@H](C)[C@@H](O)[C@H](C)CCc1ccc(C)c(O)c1C(=O)O)[C@H]1O[C@](CC)([C@H]2CC[C@](O)(CC)[C@H](C)O2)C[C@@H]1C [Lasalocid]
- JC1 duplex assay response, ABCB1 [7]: significant assay response for both transporters
- JC1 duplex assay response, ABCG2 [8]: significant assay response for both transporters

Molecule: CCCNCC(O)COc1ccccc1C(=O)CCc1ccccc1 (stereo not shown) [Propafenone HCL, propafenone]
- EC50 [3, 9]: 4.9 ± 1.3 µM

- IC50 [5]: 7.4 ± 0.95 µM
Molecule: CC(C)COCC(CN(Cc1ccccc1)c1ccccc1)N1CCCC1 (stereo not shown) [Bepridil HCL, bepridil]
- EC50 [3, 9]: 3.3 µM

Molecule: L-asparaginase
- increased resistance of DNR-resistant vs parental Jurkat cells [2]: no increased resistance
